Assays:
Type in all cases: in vivo
Ctenocephalides felis = assay: Spot-on efficacy at 1 mg/kg against Ctenocephalides felis fleas in cats protected from grooming (Example 8); settings: cats with protective neck collar
Protocol: In another study, the efficacy of four spot-on formulations comprising Cmpd. A dosed at 1 mg/kg body weight in different carrier vehicles against fleas in cats was studied. Five cats each were allocated to five Treatment Groups: Group 1—Untreated; Group 2—0.833% (w/v) Cmpd. A in dimethylsulfoxide (DMSO); Group 3—0.833% (w/v) Cmpd. A in DMI; Group 4—0.833% (w/v) Cmpd. A in Transcutol®; and Group 5—0.833% (w/v) Cmpd. A in DES. […] the corresponding spot-on formulation by application of the formulation directly on the skin in the midline of the neck, between the base of the skull and the shoulder blades in a single spot using a 1 mL syringe. Infestations with approximately 100 C. felis were conducted weekly on Days 7, 14, 21, 28 and 35. […]

Otodectes cynotis = assay: Spot-on efficacy against Otodectes cynotis (ear mites) in cats (Example 12); settings: live mite count Day 14
Protocol: The efficacy of two spot-on compositions comprising Compound A at doses of 5 mg/kg and 10 mg/kg against Otodectes cynotis in cats was evaluated compared to an untreated control. Eighteen healthy cats were grouped into three study groups consisting of six cats per group. Cats in the treatment groups were infested with Otodectes cynotis obtained from naturally infested donor cats prior to acclimation on Day −7. Group 1 was an untreated control group. Cats in Groups 2 and 3 were treated once on Day 0 with a spot-on composition comprising Compound A at two different concentrations and doses by application of the formulation directly on the skin in the midline of the neck between the base of the skull and the shoulder blades with a 1 mL disposable syringe. Cats in Group 2 were treated with a spot-on composition containing 5.0% (w/v) Compound A in a carrier containing 40% (v/v) diethyl sebacate (DES) in dimethylisosorbide (DMI) at a dose of 5 mg/kg body weight; and cats in Group 3 were treated with a spot-on composition containing 10.0% (w/v) Compound A in a carrier containing 40% (v/v) DES in DMI at a dose of 10 mg/kg body weight. […] Visible live ear mites (adult or immature) were counted and debris/cerumen level was estimated for both ear ducts. A quantitative assessment of ear mites by ear duct flushing, mite collection and live mite count was performed on Day 14. […]

[1] = system: Sarcoptes scabiei var. bovis; assay: Pour-on efficacy against Sarcoptes scabiei var. bovis (mange mites) in cattle (Example 17); settings: for % Reduction: live mite counts in scrapings
Protocol: The efficacy of two pour-on formulations of the invention comprising isoxazoline Compound A at doses of 2.5 mg/kg and 10 mg/kg were tested against natural and induced infestations with Sarcoptes scabiei var. bovis (mange mites) in cattle compared with an untreated control. Four healthy head of cattle weighing between 100 to 300 kg were used in each study group. Cattle in Group 1 were untreated (control). Cattle in Group 2 were treated on Day 0 with a pour-on formulation comprising Compound A at a concentration of 2.5% (w/v) in DES at a dose of 2.5 mg/kg; and cattle in Group 3 were treated on Day 0 with a pour-on formulation comprising Compound A at a concentration of 10% (w/v) in DES at a dose of 10 mg/kg. The formulation was applied by measuring the required amount of the solution into a marked disposable syringe and applying the material evenly along the mid-line of the back of each animal from the withers to the tail head.
Live (motile) Sarcoptes scabiei var. bovis (mange mites) were counted on days 7, 14, 20, 27, 34, 41, 48 and 55 in scrapings collected from the edges of active lesions or, if lesions regressed during the study, from the area where active lesions were at the commencement of the study. Scrapings were made from six sites with an area of at least 3 cm×3 cm in size on each animal. Tables 18A and 18B below show the efficacy of the two pour-on formulations against Sarcoptes scabiei var. bovis over 56 days. […] The long lasting efficacy of the pour-on formulations of the invention against Sarcoptes scabiei var. bovis from one topical treatment is unexpected and surprising.

For O=C(CNC(=O)c1ccc(C2=NOC(c3cc(Cl)cc(C(F)(F)F)c3)(C(F)(F)F)C2)c2ccccc12)NCC(F)(F)F (stereo not shown) [Compound A, 4-[5-[3-chloro-5-(trifluoromethyl)phenyl]-4,5-dihydro-5-(trifluoromethyl)-3-isoxazolyl]-N-[2-oxo-2-[(2,2,2-trifluoroethyl)amino]ethyl]-1-naphthalanecarboxamide], the “% Reduction” value (Ctenocephalides felis; Group 2: 0.833% in DMSO, Day 1) was 43.16%, the “% Reduction” value (Ctenocephalides felis; Group 2: 0.833% in DMSO, Day 2) was 60.54% and the “% Reduction” value (Ctenocephalides felis; Group 2: 0.833% in DMSO, Day 8) was 98.48%. For the same molecule, the “% Reduction” value (Ctenocephalides felis; Group 2: 0.833% in DMSO, Day 15) was 95.91%, the “% Reduction” value (Ctenocephalides felis; Group 2: 0.833% in DMSO, Day 22) was 97.90% and the “% Reduction” value (Ctenocephalides felis; Group 2: 0.833% in DMSO, Day 29) was 90.10%. For the same molecule, the “% Reduction” value (Ctenocephalides felis; Group 2: 0.833% in DMSO, Day 36) was 74.49%, the “% Reduction” value (Ctenocephalides felis; Group 3: 0.833% in DMI, Day 1) was 37.90% and the “% Reduction” value (Ctenocephalides felis; Group 3: 0.833% in DMI, Day 2) was 88.97%. For the same molecule, the “% Reduction” value (Ctenocephalides felis; Group 3: 0.833% in DMI, Day 8) was 99.62%, the “% Reduction” value (Ctenocephalides felis; Group 3: 0.833% in DMI, Day 15) was 99.32% and the “% Reduction” value (Ctenocephalides felis; Group 3: 0.833% in DMI, Day 22) was 98.80%. For the same molecule, the “% Reduction” value (Ctenocephalides felis; Group 3: 0.833% in DMI, Day 29) was 92.66%, the “% Reduction” value (Ctenocephalides felis; Group 3: 0.833% in DMI, Day 36) was 79.54% and the “% Reduction” value (Ctenocephalides felis; Group 4: 0.833% in Transcutol, Day 1) was 76.32%. The “% Reduction” value (Ctenocephalides felis; Group 4: 0.833% in Transcutol, Day 2) was 83.12%, the “% Reduction” value (Ctenocephalides felis; Group 4: 0.833% in Transcutol, Day 8) was 98.95% and the “% Reduction” value (Ctenocephalides felis; Group 4: 0.833% in Transcutol, Day 15) was 99.01%. For the same molecule, the “% Reduction” value (Ctenocephalides felis; Group 4: 0.833% in Transcutol, Day 22) was 96.19%, the “% Reduction” value (Ctenocephalides felis; Group 4: 0.833% in Transcutol, Day 29) was 95.41% and the “% Reduction” value (Ctenocephalides felis; Group 4: 0.833% in Transcutol, Day 36) was 86.61%. For the same molecule, the “% Reduction” value (Ctenocephalides felis; Group 5: 0.833% in DES, Day 1) was 54.40%, the “% Reduction” value (Ctenocephalides felis; Group 5: 0.833% in DES, Day 2) was 82.77% and the “% Reduction” value (Ctenocephalides felis; Group 5: 0.833% in DES, Day 8) was 98.82%. The “% Reduction” value (Ctenocephalides felis; Group 5: 0.833% in DES, Day 15) was 99.26%, the “% Reduction” value (Ctenocephalides felis; Group 5: 0.833% in DES, Day 22) was 99.82% and the “% Reduction” value (Ctenocephalides felis; Group 5: 0.833% in DES, Day 29) was 92.43%. For the same molecule, the “% Reduction” value (Ctenocephalides felis; Group 5: 0.833% in DES, Day 36) was 88.11%, the “reduced the infestation of ear mites” value (Otodectes cynotis; Group 2: 5.0% in 40% DES in DMI, 5 mg/kg) was 99.0% and the “reduced the infestation of ear mites” value (Otodectes cynotis; Group 3: 10.0% in 40% DES in DMI, 10 mg/kg) was 100.0%. For the same molecule, the “efficacy against Sarcoptes scabiei var. bovis” value (“efficacy” for short) ([1]; 10% (w/v) formulation, day 14 through day 55) was 100%, the “efficacy” value ([1]; both pour-on formulations, starting on day 7 through at least day 56) was “higher than 95%” and the “% Reduction” value ([1]; Group 2: pour-on 2.5% (w/v) in DES, 2.5 mg/kg, Day 7) was 96.7%. For the same molecule, the “% Reduction” value ([1]; Group 2: pour-on 2.5% (w/v) in DES, 2.5 mg/kg, Day 14) was 98.2%, the “% Reduction” value ([1]; Group 2: pour-on 2.5% (w/v) in DES, 2.5 mg/kg, Day 20) was 99.6% and the “% Reduction” value ([1]; Group 2: pour-on 2.5% (w/v) in DES, 2.5 mg/kg, Day 27) was 100%. For the same molecule, the “% Reduction” value ([1]; Group 2: pour-on 2.5% (w/v) in DES, 2.5 mg/kg, Day 34) was 100%, the “% Reduction” value ([1]; Group 2: pour-on 2.5% (w/v) in DES, 2.5 mg/kg, Day 41) was 100% and the “% Reduction” value ([1]; Group 2: pour-on 2.5% (w/v) in DES, 2.5 mg/kg, Day 48) was 100%. For the same molecule, the “% Reduction” value ([1]; Group 2: pour-on 2.5% (w/v) in DES, 2.5 mg/kg, Day 55) was 100%, the “% Reduction” value ([1]; second line of the table, "Group 2", pour-on in DES, Day 7) was 96.8% and the “% Reduction” value ([1]; second line of the table, "Group 2", pour-on in DES, Day 14) was 100%. For the same molecule, the “% Reduction” value ([1]; second line of the table, "Group 2", pour-on in DES, Day 20) was 100%, the “% Reduction” value ([1]; second line of the table, "Group 2", pour-on in DES, Day 27) was 100% and the “% Reduction” value ([1]; second line of the table, "Group 2", pour-on in DES, Day 34) was 100%. For the same molecule, the “% Reduction” value ([1]; second line of the table, "Group 2", pour-on in DES, Day 41) was 100%, the “% Reduction” value ([1]; second line of the table, "Group 2", pour-on in DES, Day 48) was 100% and the “% Reduction” value ([1]; second line of the table, "Group 2", pour-on in DES, Day 55) was 100%. The “efficacy” value ([1]; lower concentration pour-on formulation (Group 2), day 27 through the end of the study) was 100%.
